According to ChEMBL document CHEMBL1201862, “PubChem BioAssay data set” (2004):
The source made the active and inactive calls.

Key:
[1] = target: T1, Neuropeptide Y receptor type 2 (Homo sapiens, UniProt P49146); test: IC50 for human NPY-Y2 blockade – cell-based, counter-screen for NPY-Y1 antagonist project, dose response (AID 1278); format: functional
T1 sequence (P49146 whole entry): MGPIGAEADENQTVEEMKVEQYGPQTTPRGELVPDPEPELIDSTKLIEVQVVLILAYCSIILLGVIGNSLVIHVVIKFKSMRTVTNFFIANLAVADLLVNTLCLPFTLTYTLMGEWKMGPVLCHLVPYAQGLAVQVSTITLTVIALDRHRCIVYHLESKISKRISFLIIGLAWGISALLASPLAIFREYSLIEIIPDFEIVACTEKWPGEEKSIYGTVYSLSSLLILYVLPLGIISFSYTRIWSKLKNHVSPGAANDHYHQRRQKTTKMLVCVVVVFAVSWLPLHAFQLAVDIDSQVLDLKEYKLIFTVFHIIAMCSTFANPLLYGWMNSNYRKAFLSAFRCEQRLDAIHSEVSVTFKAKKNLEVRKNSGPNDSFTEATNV

[2] = target: T2, Neuropeptide Y receptor type 1 (Homo sapiens, UniProt P25929); test: IC50 of human NPY-Y1 blockers – cell-based, dose response (AID 1277); format: functional
T2 sequence (P25929 whole entry): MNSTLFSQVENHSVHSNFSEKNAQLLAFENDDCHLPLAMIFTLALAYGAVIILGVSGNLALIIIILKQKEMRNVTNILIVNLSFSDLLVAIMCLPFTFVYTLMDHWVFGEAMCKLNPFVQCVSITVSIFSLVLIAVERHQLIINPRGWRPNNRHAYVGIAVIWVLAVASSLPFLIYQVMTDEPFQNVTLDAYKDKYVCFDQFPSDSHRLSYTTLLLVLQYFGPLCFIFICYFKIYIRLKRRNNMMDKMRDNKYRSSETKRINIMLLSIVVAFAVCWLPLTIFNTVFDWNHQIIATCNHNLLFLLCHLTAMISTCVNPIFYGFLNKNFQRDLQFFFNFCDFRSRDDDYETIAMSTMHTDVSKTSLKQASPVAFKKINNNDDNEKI

[3] = mitochondrial function rescue without frataxin homolog – Friedreich's ataxia, plus single-dose screen, dose response (AID 1465); format: functional;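 also: yeast depleted of Yfh1p frataxin homolog grown on glycerol needing respiration; WST-1 tetrazolium dye reduction as measure of cellular dehydrogenase metabolic activity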
[4] = target: T1, Neuropeptide Y receptor type 2; test: Fluorescence-based cell-based high-throughput dose response assay for agonists of NPY-Y2. [Related pubchem assays: 1703 (Screening assay (CNGC inhibitors).), 1359 (Screening assay (NPY-Y2 potentiators or agonists).), 1304 (Screening assay (NPY-Y1 potentiators or agonists).), 1710 (Screening assay (NPY-Y2 agonists).), 1791 (Summary AID.)]; format: functional
[5] = target: T2, Neuropeptide Y receptor type 1; test: Fluorescence-based counterscreen for agonists of NPY-Y2: cell-based high-throughput dose response assay for agonists of NPY-Y1.; format: functional
HEK293 = test: Fluorescence-based counterscreen for potentiators or agonists of NPY-Y2: cell-based high-throughput dose response assay to identify inhibitors of cyclic nucleotide gated ion channel (CNGC) activity. In this assay, the parental HEK293 cell line transfected with a cyclic-nucleotide gated ion channel (CNGC)-based cAMP sensor is used to measure inhibition of isoproterenol-induced CNGC activity by test compound.; format: functional; settings: Homo sapiens;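 also: stimulus is 1 µM isoproterenol at EC100 plus PDE inhibitor Ro 20-1724 at 25 µM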
[6] = Trypanosoma cruzi growth suppression in host cells – NIH3T3 host cells, beta-gal luminescence, confirmation (AID 2044); format: functional, cell-based;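 also: intracellular parasites grown in NIH/3T3 mouse fibroblasts as host cells; luminescent beta-galactosidase reporter signal from transgenic T. cruzi replicating inside host cells; inhibitors lower the luminescence signal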
[7] = Luminescent dose response cell-based high throughput screening assay for inhibitors of the Janus kinase 2 mutant JAK2V617F. [Related pubchem assays: 1446 (Primary screen.), 1521 (Confirmation assay.), 1486 (Counter screen.)]; format: functional
Protein RecA = target: T3, Protein RecA (Mycobacterium tuberculosis, UniProt P9WHJ3); test: Fluorescence Cell-Free Homogeneous Dose Retest to Identify Inhibitors of RecA-Intein Splicing Activity. [Related pubchem assays (depositor defined):AID2097, AID2223, AID489010, AID492950]; format: functional
T3 sequence (P9WHJ3 whole entry): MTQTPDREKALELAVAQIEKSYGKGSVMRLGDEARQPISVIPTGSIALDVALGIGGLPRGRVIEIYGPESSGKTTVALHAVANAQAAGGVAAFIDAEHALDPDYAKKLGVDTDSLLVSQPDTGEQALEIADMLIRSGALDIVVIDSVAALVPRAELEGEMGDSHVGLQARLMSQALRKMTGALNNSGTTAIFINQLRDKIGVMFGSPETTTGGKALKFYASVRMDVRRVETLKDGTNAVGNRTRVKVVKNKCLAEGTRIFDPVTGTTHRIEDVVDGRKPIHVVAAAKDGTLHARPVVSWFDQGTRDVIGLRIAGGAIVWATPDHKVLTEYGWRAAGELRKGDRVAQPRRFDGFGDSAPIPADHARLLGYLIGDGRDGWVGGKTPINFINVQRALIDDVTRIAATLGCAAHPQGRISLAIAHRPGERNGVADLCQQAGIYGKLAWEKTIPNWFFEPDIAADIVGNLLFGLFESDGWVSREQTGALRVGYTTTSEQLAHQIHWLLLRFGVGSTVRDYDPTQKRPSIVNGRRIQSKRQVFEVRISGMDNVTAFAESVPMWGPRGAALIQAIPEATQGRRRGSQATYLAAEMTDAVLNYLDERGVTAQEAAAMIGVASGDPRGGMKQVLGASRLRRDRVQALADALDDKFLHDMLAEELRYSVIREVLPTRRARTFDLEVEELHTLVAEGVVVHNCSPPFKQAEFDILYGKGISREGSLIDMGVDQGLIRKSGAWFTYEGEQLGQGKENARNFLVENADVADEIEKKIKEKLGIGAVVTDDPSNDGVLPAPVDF

INS1 = test: INS-1E survival protection against cytokine death – cell-based, luminescence, retest, dose response (AID 449756); format: functional; settings: Rattus norvegicus;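 also: cell death triggered by IL-1 beta plus TNF-alpha plus IFN-gamma mixture; protective hits raise ATP signal compared with cytokine alone wells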
[8] = NIH-3T3 fibroblast cytotoxicity, dose response, cytotoxicity control, cell-based, fluorescence, Alamar Blue, secondary assay (AID 2327); format: functional;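 also: NIH-3T3 mouse fibroblasts cultured with fluconazole at 8 µg/mL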
[9] = fluconazole-exposed Candida albicans growth modulators – fluorescence, retest, confirmation (AID 2467); format: functional, cell-based
HeLa = test: Cytotoxicity counterscreen assay for transcriptional activators of heat shock protein 70 (Hsp70). [Related pubchem assays: 1203, 1252 ]; format: functional; settings: Homo sapiens;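 also: cells exposed to compound for 16 hours before readout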
[10] = target: T4, Replicative DNA helicase DnaB (Mycobacterium tuberculosis, UniProt P9WMR3); test: DnaB intein splicing inhibitors, dose response, biochemical, cell-free fluorescence (AID 449749); format: functional
T4 sequence (P9WMR3 whole entry): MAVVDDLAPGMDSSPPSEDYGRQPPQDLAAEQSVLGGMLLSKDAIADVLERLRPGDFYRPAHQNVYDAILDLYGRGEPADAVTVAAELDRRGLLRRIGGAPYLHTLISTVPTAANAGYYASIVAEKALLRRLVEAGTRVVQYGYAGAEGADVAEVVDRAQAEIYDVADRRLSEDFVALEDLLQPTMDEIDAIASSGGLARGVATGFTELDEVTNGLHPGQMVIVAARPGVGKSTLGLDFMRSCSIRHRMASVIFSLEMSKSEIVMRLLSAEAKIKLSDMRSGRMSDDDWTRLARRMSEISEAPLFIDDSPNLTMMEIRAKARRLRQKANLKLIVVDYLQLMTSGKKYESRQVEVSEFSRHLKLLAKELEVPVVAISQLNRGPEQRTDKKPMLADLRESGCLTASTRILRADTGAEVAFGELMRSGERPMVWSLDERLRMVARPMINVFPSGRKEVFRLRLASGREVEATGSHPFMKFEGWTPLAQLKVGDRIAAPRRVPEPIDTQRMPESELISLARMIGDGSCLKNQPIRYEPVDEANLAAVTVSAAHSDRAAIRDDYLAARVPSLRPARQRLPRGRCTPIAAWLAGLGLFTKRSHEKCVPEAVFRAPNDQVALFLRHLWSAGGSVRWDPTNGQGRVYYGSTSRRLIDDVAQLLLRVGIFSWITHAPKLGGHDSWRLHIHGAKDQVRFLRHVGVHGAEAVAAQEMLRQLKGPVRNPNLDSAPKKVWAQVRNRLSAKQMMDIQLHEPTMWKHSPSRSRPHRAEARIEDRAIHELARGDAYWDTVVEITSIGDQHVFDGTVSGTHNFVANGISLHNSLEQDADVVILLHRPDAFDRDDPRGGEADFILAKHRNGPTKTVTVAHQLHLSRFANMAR

[11] = NIH3T3 cell viability loss – ATP luminescence, mouse fibroblasts, counter-screen, dose response (AID 2010); format: functional, cell-based;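 also: cells exposed to compound for about 90 hours before reading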
[12] = target: Sphingosine 1-phosphate receptor 2 (Homo sapiens, UniProt O95136); test: Dose Response Cell Based Assay for Antagonists of the S1P2 Receptor. [Related pubchem assays: 856, 736 ]; format: functional
Chain of Sphingosine 1-phosphate receptor 2 (O95136 whole entry): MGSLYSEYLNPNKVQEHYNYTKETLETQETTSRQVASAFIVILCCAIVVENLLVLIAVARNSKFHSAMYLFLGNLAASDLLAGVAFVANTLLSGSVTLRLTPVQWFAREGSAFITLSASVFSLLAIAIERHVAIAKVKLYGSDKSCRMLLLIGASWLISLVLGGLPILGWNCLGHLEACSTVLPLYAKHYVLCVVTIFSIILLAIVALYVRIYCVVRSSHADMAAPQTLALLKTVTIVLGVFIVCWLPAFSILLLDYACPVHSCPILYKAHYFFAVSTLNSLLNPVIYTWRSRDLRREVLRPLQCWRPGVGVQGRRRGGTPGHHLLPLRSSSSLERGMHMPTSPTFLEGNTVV

BJ [13] = test: BJ-TERT fibroblast viability loss – cell-based, RAS-independent, luminescence, dose response (AID 1933); format: functional; settings: Homo sapiens
[14] = DRD fibroblast viability loss – cell-based, non-viral oncogenic, luminescence, dose response (AID 1934); format: functional; settings: Homo sapiens
BJ [15] = test: cells; format: functional, cell-based; settings: Homo sapiens
[16] = target: Dual specificity tyrosine-phosphorylation-regulated kinase 1A (Rattus norvegicus, UniProt Q63470); format: biochemical, Homo sapiens
BJ [17] = test: BJ-TERT-LT-ST fibroblast viability loss – cell-based, RAS-independent, luminescence, dose response (AID 1935); format: functional; settings: Homo sapiens;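 also: BJ fibroblasts immortalized with TERT plus LT and ST oncogenes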
[18] = Luminescence-based counterscreen assay for KLF5 inhibitors: dose response cell-based high throughput screening assay to identify cytotoxic compounds using the IEC-6 intestinal epithelial cell line. [Related pubchem assays: 1700 (Primary screen.), 1834 (Confirmation screen.), 1858 (Summary AID.), 1905 (Counterscreen.)]; format: functional
[19] = target: Induced myeloid leukemia cell differentiation protein Mcl-1 (Homo sapiens, UniProt Q07820); test: blockers of MCL1 binding to BIM peptide – biochemical, fluorescence polarization, BIM-BH3 peptide, 1536-well, dose response (AID 2217)
Chain of Induced myeloid leukemia cell differentiation protein Mcl-1 (Q07820 whole entry): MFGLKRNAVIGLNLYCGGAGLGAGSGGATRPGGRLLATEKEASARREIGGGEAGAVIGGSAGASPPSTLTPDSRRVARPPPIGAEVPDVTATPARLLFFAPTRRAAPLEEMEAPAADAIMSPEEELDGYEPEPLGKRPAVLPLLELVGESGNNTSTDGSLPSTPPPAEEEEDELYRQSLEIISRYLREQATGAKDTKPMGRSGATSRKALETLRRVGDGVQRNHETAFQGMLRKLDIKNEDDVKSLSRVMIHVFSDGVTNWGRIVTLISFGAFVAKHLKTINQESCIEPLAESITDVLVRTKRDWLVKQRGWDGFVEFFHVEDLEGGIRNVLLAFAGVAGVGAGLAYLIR

[20] = target: Tyrosine-protein phosphatase non-receptor type 5 (Homo sapiens, UniProt P54829); test: PTPN5 enzyme inhibition – biochemical, fluorescence intensity, uHTS hits, confirmation (AID 602372); format: functional; settings: read-out: IC50_Mean
Chain of Tyrosine-protein phosphatase non-receptor type 5 (P54829 whole entry): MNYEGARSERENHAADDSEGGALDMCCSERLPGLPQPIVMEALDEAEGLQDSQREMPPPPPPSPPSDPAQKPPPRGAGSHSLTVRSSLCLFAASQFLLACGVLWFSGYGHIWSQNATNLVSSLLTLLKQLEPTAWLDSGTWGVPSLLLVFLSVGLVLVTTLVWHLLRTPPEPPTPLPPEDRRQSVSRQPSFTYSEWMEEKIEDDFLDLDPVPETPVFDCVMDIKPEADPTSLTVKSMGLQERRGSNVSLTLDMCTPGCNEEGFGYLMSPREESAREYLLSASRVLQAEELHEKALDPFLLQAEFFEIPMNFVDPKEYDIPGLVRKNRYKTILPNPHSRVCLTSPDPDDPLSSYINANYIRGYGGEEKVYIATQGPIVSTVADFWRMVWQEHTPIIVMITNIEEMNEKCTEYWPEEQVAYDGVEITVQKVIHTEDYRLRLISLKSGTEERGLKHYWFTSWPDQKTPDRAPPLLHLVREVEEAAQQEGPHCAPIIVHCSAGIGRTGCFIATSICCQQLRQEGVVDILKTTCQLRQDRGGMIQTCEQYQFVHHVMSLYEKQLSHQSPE

[21] = target: T5, Small ubiquitin-related modifier 1 (Homo sapiens, UniProt P63165); test: SUMO1 protein interaction blockers, potency – biochemical, fluorescence polarization, uHTS hits, dose response (AID 624382); format: functional; settings: read-out: IC50_Mean
T5 sequence (P63165 whole entry): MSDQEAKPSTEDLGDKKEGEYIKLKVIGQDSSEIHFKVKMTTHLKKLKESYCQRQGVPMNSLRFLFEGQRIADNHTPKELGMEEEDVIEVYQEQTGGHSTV

[22] = target: Dual specificity protein phosphatase 3 (Homo sapiens, UniProt P51452); test: VHR phosphatase inhibition, dose response, selectivity assay for STEP inhibitor project, biochemical (AID 602374); format: functional; settings: read-out: IC50_Mean
Chain of Dual specificity protein phosphatase 3 (P51452 whole entry): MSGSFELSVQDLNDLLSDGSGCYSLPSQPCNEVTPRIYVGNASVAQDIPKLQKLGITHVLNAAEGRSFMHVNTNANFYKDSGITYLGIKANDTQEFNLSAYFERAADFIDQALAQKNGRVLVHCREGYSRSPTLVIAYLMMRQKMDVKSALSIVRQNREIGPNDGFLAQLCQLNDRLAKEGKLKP

[23] = target: Tyrosine-protein phosphatase non-receptor type 11 (Homo sapiens, UniProt Q06124); test: PTPN11 enzyme inhibitors – biochemical, selectivity assay for STEP inhibitor project, dose response (AID 602367); format: functional; settings: read-out: IC50_Mean
Chain of Tyrosine-protein phosphatase non-receptor type 11 (Q06124 whole entry): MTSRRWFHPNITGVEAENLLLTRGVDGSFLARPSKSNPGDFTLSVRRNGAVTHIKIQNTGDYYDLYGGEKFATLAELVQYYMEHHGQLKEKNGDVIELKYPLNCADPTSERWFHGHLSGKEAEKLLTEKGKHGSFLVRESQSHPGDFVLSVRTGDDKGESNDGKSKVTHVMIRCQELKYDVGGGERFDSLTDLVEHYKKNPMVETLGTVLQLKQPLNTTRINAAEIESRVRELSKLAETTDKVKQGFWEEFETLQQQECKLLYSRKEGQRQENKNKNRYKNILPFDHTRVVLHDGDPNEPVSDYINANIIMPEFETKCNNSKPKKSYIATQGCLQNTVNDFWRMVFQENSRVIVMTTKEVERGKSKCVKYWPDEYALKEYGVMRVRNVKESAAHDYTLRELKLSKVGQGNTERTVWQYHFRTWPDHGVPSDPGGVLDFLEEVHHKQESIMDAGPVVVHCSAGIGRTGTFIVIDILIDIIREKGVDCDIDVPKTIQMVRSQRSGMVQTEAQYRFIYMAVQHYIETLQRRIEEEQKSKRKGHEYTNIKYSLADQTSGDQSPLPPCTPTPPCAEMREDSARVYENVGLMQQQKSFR

[24] = target: T5, Small ubiquitin-related modifier 1; test: SUMO1 protein-protein binding blockers, potency – biochemical, FRET, dose response (AID 624383); format: functional; settings: read-out: IC50_Mean
Bcl-2-like protein 1 = Bcl-2-like protein 1 (Homo sapiens, UniProt Q07817); test: blockers of BCLXL peptide binding – biochemical, fluorescence polarization, 1536-well, selectivity assay for MCL1 inhibitor project, dose response (AID 2218)
Chain of Bcl-2-like protein 1 (Q07817 whole entry): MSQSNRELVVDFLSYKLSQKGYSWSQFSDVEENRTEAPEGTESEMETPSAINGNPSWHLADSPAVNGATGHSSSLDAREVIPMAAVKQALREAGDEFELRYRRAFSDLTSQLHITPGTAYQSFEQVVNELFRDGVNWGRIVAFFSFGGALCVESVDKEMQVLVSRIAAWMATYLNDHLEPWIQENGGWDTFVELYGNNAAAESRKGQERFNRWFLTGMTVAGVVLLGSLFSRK

Compound: CCc1cccc(CC)c1NC(=O)C(NS(=O)(=O)c1cccs1)c1ccccc1 (centres undefined)
- IC50 [1]: > 35 µM (not active)
- IC50 [2]: > 35 µM (not active)

Compound: COc1ccc2ccccc2c1C(=O)/C=C\c1ccoc1
- EC50 [3]: > 100 µM (active)

Compound: COc1ccc(N2CCN(CC(O)COc3ccccc3[N+](=O)[O-])CC2)cc1 (centres undefined)
- EC50 [4]: 12.3 µM (not active)
- EC50 [5]: 9.49 µM (active)
- EC50 (HEK293): 2.43 µM (active)

Compound: O=C(OCn1ncc(Cl)c(Cl)c1=O)c1ccc(F)cc1
- EC50 [6]: 1.16 µM (active)
- IC50 [7]: 0.351 µM (active)
- EC50 (Protein RecA): 0.938 µM (active)
- AC50 (INS1): 7.34 µM (active)
- EC50 [8]: 1.85 µM (inconclusive)
- EC50 [9]: > 38 µM (not active)
- CC50 (HeLa): 21.7 µM (not active)
- AC50 [10]: 5.07 µM (active)
- EC50 [11]: 1.04 µM (active)
- IC50 [12]: 3.76 µM (active)

Compound: COc1ccc2[nH]c(C(=O)N/N=C/c3ccc(OC)c(O)c3)cc2c1
- EC50 (BJ [13]): 1.89 µM (active)
- EC50 [14]: 41.7 µM (inconclusive)
- EC50 (BJ [15]): 59.5 µM (inconclusive)
- AC50 [16]: 1.04 µM (active)
- EC50 (BJ [17]): 50.5 µM (inconclusive)
- IC50 [18]: 20.4 µM (not active)

Compound: O=C(N/N=C/c1ccncc1)c1cccc(S(=O)(=O)Nc2ccc(Cl)cc2)c1
- IC50 [19]: 11.3 µM (not active)
- IC50 [20]: 14.7 µM (active)
- IC50 [21]: > 66.6 µM (inactive)
- IC50 [22]: 2.87 µM (active)
- IC50 [23]: 2.6 µM (active)
- IC50 [24]: 10.3 µM (active)
- IC50 (Bcl-2-like protein 1): > 109 µM (not active)
